Measured values taken from ChEMBL document CHEMBL1201862, “PubChem BioAssay data set” (2004).
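Test compounds were applied to cells in 96-well plates for 48 hours at 5 doses. Abbreviation: GI50, concentration required for 50% inhibition of growth.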 Calls of active or inactive are those of the source. Cut-off read from the data, not from the text of the source: active = GI50 up to about 1.1 µM and inactive = higher.

Assays:
Assay in all cases: NCI anticancer screen, dose series, 48 h
[1] = tested on: K562
[2] = tested on: SK-OV-3
[3] = tested on: U-251
[4] = tested on: EKVX
[5] = tested on: OVCAR-4
[6] = tested on: UO-31
[7] = tested on: CCRF-CEM
[8] = tested on: XF498
[9] = tested on: KM-20L2
[10] = tested on: Malme-3M
[11] = tested on: NCI-H522
[12] = tested on: SF-539
[13] = tested on: HCT-15
[14] = tested on: NCI-H460
[15] = tested on: IGROV-1
[16] = tested on: SK-MEL-28
[17] = tested on: SNB-78
[18] = tested on: SNB-75
[19] = tested on: NCI-H23
[20] = tested on: NCI-H226

SMILES	GI50 [1]	GI50 [2]	GI50 [3]	GI50 [4]	GI50 [5]	GI50 [6]	GI50 [7]	GI50 [8]	GI50 [9]	GI50 [10]	GI50 [11]	GI50 [12]	GI50 [13]	GI50 [14]	GI50 [15]	GI50 [16]	GI50 [17]	GI50 [18]	GI50 [19]	GI50 [20]
CC1OC=CC(=O)C1O (configuration not stated)	> 100 µM (inactive)	> 100 µM (inactive)	> 100 µM (inactive)	> 100 µM (inactive)	> 100 µM (inactive)	> 100 µM (inactive)	69.7 µM (inactive)	> 100 µM (inactive)	> 100 µM (inactive)	> 100 µM (inactive)	50.4 µM (inactive)	> 100 µM (inactive)	> 100 µM	> 100 µM (inactive)	> 100 µM (inactive)	> 100 µM (inactive)	> 100 µM (inactive)	> 100 µM (inactive)	> 100 µM (inactive)	–
O=C(O)/C=C/c1ccncc1	> 100 µM (inactive)	> 100 µM (inactive)	0.173 µM (active)	> 100 µM (inactive)	> 100 µM (inactive)	> 100 µM (inactive)	> 100 µM (inactive)	> 100 µM (inactive)	> 100 µM (inactive)	> 100 µM (inactive)	> 100 µM (inactive)	> 100 µM (inactive)	14.5 µM	> 100 µM (inactive)	> 100 µM (inactive)	> 100 µM (inactive)	> 100 µM (inactive)	> 100 µM (inactive)	> 100 µM (inactive)	> 100 µM (inactive)
CCOC(=O)/C=C/c1c[nH]c(=O)[nH]c1=O	> 75 µM (inactive)	> 41.5 µM (inactive)	> 75 µM (inactive)	> 75 µM (inactive)	> 75 µM (inactive)	> 75 µM (inactive)	> 75 µM (inactive)	11.9 µM (inactive)	> 75 µM (inactive)	> 75 µM (inactive)	> 75 µM (inactive)	> 75 µM (inactive)	> 75 µM	> 75 µM (inactive)	> 75 µM (inactive)	> 75 µM (inactive)	> 75 µM (inactive)	> 72.6 µM (inactive)	> 75 µM (inactive)	> 75 µM (inactive)
CCCCCCc1cn([C@H]2C[C@H](O)[C@@H](CO)O2)c(=O)[nH]c1=O	> 100 µM (inactive)	> 10 µM (inactive)	> 100 µM (inactive)	> 100 µM (inactive)	> 100 µM (inactive)	> 100 µM (inactive)	> 100 µM (inactive)	> 100 µM (inactive)	> 100 µM (inactive)	> 100 µM (inactive)	> 100 µM (inactive)	> 100 µM (inactive)	> 100 µM	> 100 µM (inactive)	> 100 µM (inactive)	> 100 µM (inactive)	> 100 µM (inactive)	> 100 µM (inactive)	> 100 µM (inactive)	> 100 µM (inactive)
O=c1oc2c(ccc3occc32)c(N2CCCCC2)c1-c1ccccc1	–	–	> 100 µM (inactive)	> 70.8 µM (inactive)	> 93.3 µM (inactive)	12.7 µM (inactive)	–	> 100 µM (inactive)	> 100 µM (inactive)	> 100 µM (inactive)	> 86.3 µM (inactive)	> 100 µM (inactive)	> 80 µM	> 96.4 µM (inactive)	> 100 µM (inactive)	> 100 µM (inactive)	> 91.8 µM (inactive)	> 80.7 µM (inactive)	> 100 µM (inactive)	–
Cc1ccc(C(=O)Nc2ccc(S(=O)(=O)O)c3cc(S(=O)(=O)O)cc(S(=O)(=O)O)c23)cc1NC(=S)Nc1cc(C(=O)Nc2ccc(S(=O)(=O)O)c3cc(S(=O)(=O)O)cc(S(=O)(=O)O)c23)ccc1C	> 75 µM (inactive)	–	> 75 µM (inactive)	–	> 75 µM (inactive)	> 75 µM (inactive)	> 75 µM (inactive)	–	–	> 75 µM (inactive)	> 75 µM (inactive)	–	> 75 µM	> 75 µM (inactive)	> 75 µM (inactive)	> 75 µM (inactive)	–	> 75 µM (inactive)	> 75 µM (inactive)	> 75 µM (inactive)
Cc1cc(O)c2c(c1)C(=O)c1cc(O)cc(O)c1C2=O [EMODIN]	–	30.7 µM (inactive)	24.7 µM (inactive)	–	30.6 µM (inactive)	–	> 61.8 µM (inactive)	26.1 µM (inactive)	40.8 µM (inactive)	11 µM (inactive)	27.4 µM (inactive)	–	22.9 µM	20.3 µM (inactive)	–	25.4 µM (inactive)	49.2 µM (inactive)	32.6 µM (inactive)	14.9 µM (inactive)	20.1 µM (inactive)
O=C1OC(c2ccccc2)=N/C1=C/c1cccs1	30.4 µM (inactive)	> 100 µM (inactive)	59.8 µM (inactive)	> 100 µM (inactive)	41 µM (inactive)	–	23.4 µM (inactive)	–	–	–	–	27.6 µM (inactive)	36.7 µM	> 100 µM (inactive)	> 100 µM (inactive)	> 100 µM (inactive)	–	42.4 µM (inactive)	–	58.3 µM (inactive)
